Experimental findings from PMC12921483 (Frontiers in Pharmacology, 2026) are described below.

Where two headings read alike, the source gives them in different places. A value given as a limit tells only on which side of the number the result lay.

Type in all cases: cell-based
Data set [1] deals with HeLa. Put plainly: CCK-8 antiproliferative assay, HeLa. For orientation: Formazan colour is commonly taken as a measure of viable cells.
Protocol: (§1) Cells were seeded into 96-well plates at a density of 2.5–6 × 10^3 cells per well and incubated for 24 h. They were then treated with a series of eight concentrations of the test compounds (e.g., from 100 to 0.78125 μM or from 2 to 0.015625 μM, prepared by twofold serial dilution) for 48 h. After treatment, the medium was removed and replaced with 100 μL of 10% CCK-8 solution (diluted in fresh medium). Following incubation in the dark for 1–2 h, absorbance at 450 nm was measured using a microplate reader. The half-maximal inhibitory concentration (IC50) was calculated using SPSS software. Each concentration was tested in six replicate wells, and the entire experiment was performed in three independent biological replicates.
(§2) IC50 values were derived by nonlinear regression (SPSS 26). All data are presented as mean ± SD from at least three independent biological replicates (n ≥ 3). Differences were assessed by Student’s t-test (two groups) or one-way ANOVA with Tukey’s post hoc test (multiple groups). […] Statistical significance was set at p < 0.05.
Data set [2] has as its system C-33A. Put plainly: CCK-8 antiproliferative assay, C-33A. Particulars: read-out: IC50 C-33A.
Protocol: as §1, §2
Data set [3] has as its system H8. The data set can be described thus: CCK-8 cytotoxicity, normal cervical epithelial cells H8. Particulars: for IC50: read-out: IC50 H8; for toxicity to H8 cells in words: normal cervical epithelial cells.
Protocol: as §1, §2
The subject of data set [4] is SiHa. The data set can be described thus: CCK-8 antiproliferative assay, SiHa. The settings on record: read-out: IC50 SiHa.
Protocol: as §1, §2
Data set [5] relates to HeLa cells. Put plainly: MDA assay kit. The settings on record: Fer-1 5 μmol/L cotreated with 0.22 μmol/L B1, HeLa.
Protocol: MDA levels in HeLa cells were detected using an MDA assay kit ([Tsikas et al., 2017]).
After 24 h of treatment, cells were collected and washed twice with PBS for subsequent analysis.
Data set [6] deals with HeLa cells. Put plainly: Fe2+ assay kit. The settings on record: Fer-1 5 μmol/L cotreated with 0.22 μmol/L B1, HeLa.
Protocol: Intracellular ferrous iron (Fe^2+) levels in HeLa cells were measured using an Fe^2+ assay kit.
(§3) After 24 h of treatment, cells were collected and washed twice with PBS for subsequent analysis. […] Subsequent procedures were performed strictly according to the manufacturer’s instructions of the respective kits: MDA assay kit (Servicebio, Cat# GM1134), Fe^2+ colorimetric assay kit (Servicebio, Cat# GM3052), and reduced GSH assay kit (Servicebio, Cat# GM1139).
Data set [7] has as its system HeLa cells. The data set can be described thus: GSH assay kit. Particulars: Fer-1 5 μmol/L cotreated with 0.22 μmol/L B1, HeLa.
Protocol: Intracellular GSH levels were measured using a GSH assay kit.
as §3
In data set [8] the test system is SLC7A11. Put plainly: Western blot, SLC7A11 expression in HeLa cells. The settings on record: Fer-1 5 μmol/L cotreated with B1, HeLa. On the technique in general: A western blot detects proteins with antibodies after separation by electrophoresis.
Data set [9] relates to GPX4. Put plainly: Western blot, GPX4 expression in HeLa cells. Particulars: Fer-1 5 μmol/L cotreated with B1, HeLa.
Where [10] appears, read: Homo sapiens, HeLa, 48 h, read-out: IC50 HeLa.
[11] abbreviates: Homo sapiens, HeLa, CCK-8, 48 h, Table 1, read-out: IC50 HeLa.
The mark [12] stands for this setting: Homo sapiens, C-33-A, CCK-8, 48 h, Table 1.
The mark [13] stands for this setting: Epithelial cell, CCK-8, 48 h, normal cells, Table 1.
The mark [14] stands for this setting: Homo sapiens, SiHa, CCK-8, 48 h, Table 1.
Where [15] appears, read: CCK-8, 48 h, Table 1, read-out: IC50 HeLa.
Setting [16] is: CCK-8, 48 h, normal cells, Table 1.

One may read the IC50 as the concentration at which inhibition is half-maximal. As to `O=C(/C=C/c1ccc(N2CCCC2)cc1)c1cc(F)ccc1F` [Compound C2], the IC50 came to 9.3 µM in data set [1] (Homo sapiens, HeLa); 27.1 ± 0.59 µM in data set [1] (setting [10]); 44.1 ± 1.99 µM in data set [2] (Homo sapiens, C-33-A, 48 h); 35.1 ± 0.95 µM in data set [3] (Epithelial cell, 48 h); 26.4 ± 1.11 µM in data set [4] (Homo sapiens, SiHa, 48 h).
In the case of `COc1ccc(F)cc1C(=O)/C=C/c1ccc(N2CCCC2)cc1` [Compound B1], the IC50 is 0.22 ± 0.01 µM in data set [1] (setting [10]); ~0.22 µM in [1] (Homo sapiens, HeLa, read-out: IC50 HeLa); 0.95 ± 0.02 µM in [2] (Homo sapiens, C-33-A, 48 h); 45.8 ± 1.61 µM in data set [3] (Epithelial cell, 48 h); 0.24 ± 0.03 µM in data set [4] (Homo sapiens, SiHa, 48 h); ~0.24 µM in data set [4] (Homo sapiens, SiHa). For the same compound, in data set [3], the “toxicity to H8 cells in words” value is “low toxicity”.
Consider `COc1ccc(Cl)cc1/C=C/C(=O)c1ccc(N2CCCC2)cc1` [Compound D3], for which the IC50 in [1] (setting [10]) is 8.17 ± 0.46 µM; in [2] (Homo sapiens, C-33-A, 48 h), 34.2 ± 1.3 µM; in data set [3] (Epithelial cell, 48 h) it was 22.6 ± 0.32 µM; in data set [4] (Homo sapiens, SiHa, 48 h), 10.9 ± 0.38 µM.
For `O=C(/C=C/c1ccc(N2CCCC2)cc1)c1ccccc1C(F)(F)F` [Compound A5], in that order: 13.6 ± 0.26 µM, 36.69 ± 0.22 µM, 78.7 ± 1.41 µM and 38 ± 0.74 µM.
The corresponding values for `COc1cccc(OC)c1C(=O)/C=C/c1ccc(N2CCCC2)cc1` [Compound A3] are 31.5 ± 1.46 µM, > 100 µM, > 100 µM and 64.44 ± 0.57 µM.
As for `O=C(/C=C/c1ccc(N2CCCC2)cc1)c1ccc(Cl)c(Cl)c1Cl` [Compound A9], the IC50 in data set [1] (setting [11]) was > 100 µM; in data set [2] (setting [12]), > 100 µM; in [3] (setting [13]), > 100 µM; in data set [4] (setting [14]) it was 90.5 ± 3.38 µM.
For `O=C(/C=C/c1ccc(OC(F)(F)F)cc1)c1ccc(N2CCCC2)cc1` [Compound D6], the half-maximal inhibitory concentration (IC50) was > 100 µM in data set [1] (setting [10]); > 100 µM in data set [2] (Homo sapiens, C-33-A, 48 h); > 100 µM in data set [3] (Epithelial cell, 48 h); 77.3 ± 2.13 µM in [4] (Homo sapiens, SiHa, 48 h).
For the compound `O=C(/C=C/c1cccc(OC(F)(F)F)c1)c1ccc(N2CCCC2)cc1` [Compound D5], the IC50 is 32 ± 1.28 µM in [1] (setting [10]); > 100 µM in [2] (Homo sapiens, C-33-A, 48 h); > 100 µM in data set [3] (Epithelial cell, 48 h); 44.4 ± 1.64 µM in data set [4] (Homo sapiens, SiHa, 48 h).
As for `O=C(/C=C/c1ccc(N2CCCC2)cc1)c1cccc(C(F)(F)F)c1` [Compound A6], the IC50 in data set [1] (Homo sapiens, HeLa) is > 100 µM; in data set [1] (setting [10]) it was 31.8 ± 1.45 µM; in [2] (Homo sapiens, C-33-A, 48 h) it was 35.1 ± 0.37 µM; in data set [3] (Epithelial cell, 48 h) it was 86.4 ± 3.17 µM; in data set [4] (Homo sapiens, SiHa, 48 h), 34.5 ± 0.59 µM.
With `Cc1cccc(C(=O)/C=C/c2ccc(N3CCCC3)cc2)c1` [Compound A7], the IC50 stood at 27.6 ± 2.23 µM in [1] (setting [10]); 37.2 ± 0.19 µM in data set [2] (Homo sapiens, C-33-A, 48 h); 91.6 ± 3.28 µM in data set [3] (Epithelial cell, 48 h); 16.41 ± 0.13 µM in [4] (Homo sapiens, SiHa, 48 h).
In the case of `COc1ccc(Br)cc1C(=O)/C=C/c1ccc(N2CCCC2)cc1` [Compound B2], the IC50 in data set [1] (setting [10]) was found to be 1.09 ± 0.05 µM; in [2] (Homo sapiens, C-33-A, 48 h), 4.4 ± 0.11 µM; in [3] (Epithelial cell, 48 h) it was 56.8 ± 0.75 µM; in [4] (Homo sapiens, SiHa, 48 h), 1.35 ± 0.13 µM.
On to `CCOC(=O)c1ccc(NC2CCCCC2)c(N)c1` [Ferrostatin-1, ferrostatin-1], for which the “MDA levels on cotreatment” value in [5] is “reduced”. Further, the “Fe^2+ levels on cotreatment” value in [6] was “reduced”. The “intracellular GSH levels on cotreatment” value in data set [7] was “increased”. The “SLC7A11 protein expression level on cotreatment” value in [8] is reported as “increased”. The “GPX4 protein expression level on cotreatment” value in data set [9] is on record as “increased”.
For `COc1ccc(C(=O)/C=C/c2ccc(N3CCCC3)cc2)c(OC)c1OC` [Compound A4], the concentration for half-maximal inhibition (IC50) in data set [1] (setting [10]) amounted to 15.7 ± 0.38 µM; in data set [2] (Homo sapiens, C-33-A, 48 h) it was 21.3 ± 1.02 µM; in data set [3] (Epithelial cell, 48 h), 81 ± 1.03 µM; in data set [4] (Homo sapiens, SiHa, 48 h), 7.78 ± 0.24 µM.
Take `COc1ccccc1C(=O)/C=C/c1ccc(N2CCCC2)cc1` [Compound A1]: the 50% inhibitory concentration (IC50) in [1] (setting [10]) is 3.04 ± 0.03 µM; in [2] (Homo sapiens, C-33-A, 48 h), 4.79 ± 0.19 µM; in data set [3] (Epithelial cell, 48 h) it was 61.3 ± 1.34 µM; in data set [4] (Homo sapiens, SiHa, 48 h) it was 2.93 ± 0.21 µM. Also, in data set [3], the “toxicity to H8 cells in words” value is given as “low toxicity”.
In the case of `COc1ccc(Br)cc1/C=C/C(=O)c1ccc(N2CCCC2)cc1` [Compound D2], the IC50 in data set [1] (setting [10]) was determined as 10.8 ± 0.37 µM; in data set [2] (Homo sapiens, C-33-A, 48 h) it was 49.8 ± 2.93 µM; in [3] (Epithelial cell, 48 h), 40 ± 0.55 µM; in [4] (Homo sapiens, SiHa, 48 h), 11.55 ± 0.06 µM.
As for `CCOc1ccccc1-n1c(C(C)N2CCN(C(=O)COc3ccc(Cl)cc3)CC2)nc2ccccc2c1=O` (stereo not shown) [Erastin, reference compound], in data set [1] (Homo sapiens, HeLa, CCK-8, Table 3, ferroptosis inducer/inhibitor comparison, read-out: IC50 HeLa), the concentration for half-maximal inhibition (IC50) was determined as 17.2 ± 0.53 µM.
On to `COc1ccc(F)cc1/C=C/C(=O)c1ccc(N2CCCC2)cc1` [Compound D1], for which the IC50 in [1] (setting [10]) turned out to be 5.25 ± 0.1 µM; in [2] (Homo sapiens, C-33-A, 48 h), 20.9 ± 1.03 µM; in [3] (Epithelial cell, 48 h), 19.2 ± 1.08 µM; in data set [4] (Homo sapiens, SiHa, 48 h), 5.44 ± 0.23 µM.
For `O=C(/C=C/c1ccc(N2CCCC2)cc1)c1cccc(OC(F)(F)F)c1` [Compound B6], in that order: > 100 µM, > 100 µM, > 100 µM and 49.5 ± 1.4 µM.
Regarding `N.N.[Cl][Pt][Cl]` [Cisplatin, reference compound], the concentration for half-maximal inhibition (IC50) was determined as 18.23 ± 0.11 µM in data set [1] (setting [15]); 12.7 ± 1.09 µM in data set [2] (CCK-8, 48 h, Table 1); 25.6 ± 1.32 µM in data set [3] (setting [16]); 37 ± 1.54 µM in data set [4] (CCK-8, 48 h, Table 1).
Take `O=C(/C=C/c1ccc(N2CCCC2)cc1)c1ccc(OC(F)(F)F)cc1` [Compound B7]: the IC50 was > 100 µM in data set [1] (setting [10]); > 100 µM in [2] (Homo sapiens, C-33-A, 48 h); > 100 µM in data set [3] (Epithelial cell, 48 h); > 100 µM in data set [4] (Homo sapiens, SiHa, 48 h).
`COc1ccc(C2=N[C@@H](c3ccc(Cl)cc3)[C@@H](c3ccc(Cl)cc3)N2C(=O)N2CCNC(=O)C2)c(OC(C)C)c1` [Nutlin-3a, reference compound]: the IC50 in data set [1] (setting [15]) was 61.3 ± 1.42 µM; in data set [2] (CCK-8, 48 h, Table 1), 57 ± 2.81 µM; in [3] (setting [16]) it was 45.5 ± 2.11 µM; in [4] (CCK-8, 48 h, Table 1), 56.6 ± 2.2 µM.
With `COc1ccc(Cl)cc1C(=O)/C=C/c1ccc(N2CCCC2)cc1` [Compound B3], the IC50 in [1] (setting [10]) was 1.59 ± 0.08 µM; in [2] (Homo sapiens, C-33-A, 48 h), 4.29 ± 0.15 µM; in [3] (Epithelial cell, 48 h) it was 57 ± 2.47 µM; in data set [4] (Homo sapiens, SiHa, 48 h), 2.17 ± 0.02 µM.
The corresponding values for `O=C(/C=C/c1ccc(N2CCCC2)cc1)c1ccc(C(F)(F)F)cc1` [Compound A8] are > 100 µM, > 100 µM, > 100 µM and > 100 µM.
The corresponding values for `COc1ccc(C(=O)/C=C/c2ccc(N3CCCC3)cc2)c(OC)c1` [Compound A2] are 16.7 ± 0.65 µM, 17.9 ± 0.55 µM, 74 ± 1.05 µM and 18.3 ± 0.73 µM.
For the compound `O=C(/C=C/c1ccccc1)c1ccccc1` [Chalcone, reference compound], the half-maximal inhibitory concentration (IC50) came to 63.9 ± 2.85 µM in [1] (setting [11]), 58.7 ± 1.05 µM in [2] (setting [12]), 38.6 ± 1.64 µM in data set [3] (setting [13]) and 69.7 ± 1.67 µM in data set [4] (setting [14]).
For `COc1ccc(OC)c(C(=O)/C=C/c2ccc(N3CCCC3)cc2)c1` [Compound C1], the IC50 was found to be 27.1 µM in [1] (Homo sapiens, HeLa); 9.3 ± 0.57 µM in data set [1] (setting [10]); 13.8 ± 0.45 µM in data set [2] (Homo sapiens, C-33-A, 48 h); 27.2 ± 2.33 µM in data set [3] (Epithelial cell, 48 h); 9.92 ± 0.67 µM in [4] (Homo sapiens, SiHa, 48 h).
Regarding `COc1ccccc1C(=O)/C(C)=C/c1ccc(N2CCCC2)cc1` [Compound B4], the IC50 in [1] (setting [11]) was 84.8 ± 2.69 µM; in data set [2] (setting [12]), > 100 µM; in [3] (setting [13]) it was > 100 µM; in [4] (setting [14]), 44.7 ± 0.78 µM.
Turning to `O=C(/C=C/c1ccc(N2CCCC2)cc1)c1ccccc1OC(F)(F)F` [Compound B5], the IC50 in data set [1] (setting [10]) came out at 0.9 ± 0.02 µM; in data set [2] (Homo sapiens, C-33-A, 48 h), 5.93 ± 0.07 µM; in data set [3] (Epithelial cell, 48 h), 76.9 ± 3.87 µM; in data set [4] (Homo sapiens, SiHa, 48 h) it was 0.91 ± 0.03 µM.
For `O=C(/C=C/c1ccccc1OC(F)(F)F)c1ccc(N2CCCC2)cc1` [Compound D4], the 50% inhibitory concentration (IC50) was 4.09 ± 0.24 µM in [1] (setting [10]); 33 ± 2.38 µM in [2] (Homo sapiens, C-33-A, 48 h); > 100 µM in data set [3] (Epithelial cell, 48 h); 9.28 ± 0.33 µM in data set [4] (Homo sapiens, SiHa, 48 h).
